In PubChem BioAssay (NCI) one finds GI50 and TGI data, which are given here for seven compounds.

Several values for one entry are separate records, joined by “and”; a condition that tells them apart may be missing. Equal values may be shown once.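 Growth conditions: 96-well plates. Treatment: test compound, 48 hours, 5 concentrations. Analysis: linear interpolation between bracketing concentrations; unreached endpoints set to highest concentration. Abbreviation: GI50, concentration required for 50% inhibition of growth. At the TGI there is no net growth.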

Among the test systems are 786-0 renal; KM12 colon; MOLT-4 leukemia; TK-10 renal; BT-549 breast; HT29 colon; DU-145 prostate; HOP-92 NSCLC; IGROV1 ovarian; SF-295 CNS.
What all share (assay): inhibition of tumour cell growth, NCI panel, 48 h

With `CC1=C/C=C/C(=O)O[C@@H]([C@H](C)[C@H](O)[C@@H](C)NC(=O)C(C)C)[C@H](C)/C=C/C(C)=C/[C@H]2C=CCC[C@@]2(C)\C=C\1`, the GI50 was 0.506 µM and 0.147 µM in the experiment on 786-0 renal; 0.518 µM and 0.343 µM in the experiment with KM12 colon; 8.41 µM in the experiment on MOLT-4 leukemia; 6.12 µM in the experiment with TK-10 renal; 0.836 µM and 1.13 µM in the experiment on BT-549 breast; 0.233 µM and 0.0595 µM in the experiment with HT29 colon. In addition, the GI50 in the experiment with DU-145 prostate was 4.64 µM and 0.652 µM; in the experiment with HOP-92 NSCLC, 0.059 µM and 0.0545 µM; in the experiment on IGROV1 ovarian, 0.603 µM and 0.189 µM; in the experiment with SF-295 CNS, 0.0264 µM. The TGI is 8.06 µM in the experiment on 786-0 renal; greater than 42.3 µM in the experiment with KM12 colon; 31.6 µM in the experiment with MOLT-4 leukemia; 19 µM in the experiment with TK-10 renal; 16.3 µM in the experiment on BT-549 breast; 6.85 µM in the experiment on HT29 colon. The TGI in the experiment on DU-145 prostate turned out to be 8.98 µM; in the experiment with HOP-92 NSCLC it was 6.5 µM; in the experiment with IGROV1 ovarian it was 10.7 µM; in the experiment with SF-295 CNS it was 7.5 µM.

With `O=C1Nc2ccccc2/C1=C\c1c(-c2ccccc2)nc2sccn12`, the GI50 with 786-0 renal is 2.39 µM; with KM12 colon it was 0.833 µM; in the experiment on MOLT-4 leukemia, 1.1 µM; in the experiment on TK-10 renal, 4.61 µM; with BT-549 breast, 3.3 µM; in the experiment on HT29 colon it was 3.14 µM. Moreover, the GI50 with DU-145 prostate was 7.31 µM; in the experiment on HOP-92 NSCLC it was 2.14 µM; with IGROV1 ovarian, 1.98 µM; in the experiment with SF-295 CNS, 0.797 µM. The TGI is 9.23 µM with 786-0 renal; 20.1 µM with KM12 colon; greater than 37.5 µM in the experiment with MOLT-4 leukemia; 17.2 µM in the experiment on TK-10 renal; 16.9 µM in the experiment on BT-549 breast; 36.9 µM in the experiment on HT29 colon. Also, the TGI with DU-145 prostate is 31.1 µM; in the experiment with HOP-92 NSCLC, 7.87 µM; in the experiment on IGROV1 ovarian it was greater than 54.2 µM; with SF-295 CNS, 3.24 µM.

For `Cc1ccccc1C1=C(c2cn(C)c3ccccc23)C(=O)NC1=O`, the GI50 is greater than 25 µM in the experiment on 786-0 renal; 10.8 µM in the experiment on KM12 colon; 10.8 µM with MOLT-4 leukemia; greater than 25 µM in the experiment with TK-10 renal; greater than 21.8 µM in the experiment with BT-549 breast; 12.1 µM in the experiment with HT29 colon. Moreover, the GI50 in the experiment with DU-145 prostate was 23.7 µM; with HOP-92 NSCLC, greater than 25 µM; in the experiment with IGROV1 ovarian it was greater than 25 µM; in the experiment on SF-295 CNS it was 14.7 µM. Moreover, the TGI with 786-0 renal, with KM12 colon, in the experiment on MOLT-4 leukemia, with TK-10 renal, in the experiment with BT-549 breast and in the experiment with HT29 colon was greater than 25 µM each time. Further, the TGI in the experiment on DU-145 prostate, with HOP-92 NSCLC, with IGROV1 ovarian and with SF-295 CNS was greater than 25 µM each time.

In the case of `Oc1cc(N2CC2)c(O)cc1N1CC1`, the GI50 in the experiment with 786-0 renal was 0.742 µM; with KM12 colon it was 1.63 µM; in the experiment with MOLT-4 leukemia, 0.591 µM; with TK-10 renal, 1.27 µM; in the experiment with BT-549 breast, 1.84 µM; in the experiment with HT29 colon, 0.384 µM. The GI50 with DU-145 prostate was 0.254 µM; with HOP-92 NSCLC, 2.33 µM; with IGROV1 ovarian, 0.794 µM; with SF-295 CNS, 0.377 µM. In addition, the TGI with 786-0 renal came to 4.69 µM; in the experiment on KM12 colon it was 4.44 µM; in the experiment on MOLT-4 leukemia, 7.89 µM; in the experiment with TK-10 renal, 9.35 µM; in the experiment on BT-549 breast, 5.96 µM; in the experiment on HT29 colon, 6.79 µM. Also, the TGI turned out to be 1.37 µM in the experiment on DU-145 prostate, 7.9 µM in the experiment with HOP-92 NSCLC, 3.6 µM in the experiment on IGROV1 ovarian and 5.32 µM in the experiment with SF-295 CNS.

Regarding `CC1(C)CC(=O)C=C(/C=C/Sc2c(Cl)c(Cl)nc(Cl)c2Cl)C1`, the GI50 in the experiment with 786-0 renal is 3.92 µM; with KM12 colon, 11.6 µM; in the experiment on MOLT-4 leukemia, 4.61 µM; in the experiment on TK-10 renal, 19.6 µM; with BT-549 breast, 5.87 µM; in the experiment on HT29 colon, 16.5 µM. The GI50 is 10 µM in the experiment with DU-145 prostate, 16.7 µM in the experiment with HOP-92 NSCLC, 4.75 µM in the experiment with IGROV1 ovarian and 17.7 µM in the experiment on SF-295 CNS. In addition, the TGI in the experiment on 786-0 renal was 15.2 µM; with KM12 colon it was 26.2 µM; with MOLT-4 leukemia, greater than 100 µM; with TK-10 renal, 35.5 µM; in the experiment with BT-549 breast it was 22.3 µM; with HT29 colon, 47.1 µM. Besides, the TGI with DU-145 prostate is 21.7 µM; in the experiment with HOP-92 NSCLC, 35.2 µM; in the experiment on IGROV1 ovarian it was 84.9 µM; with SF-295 CNS, 35.6 µM.

For the compound `N#Cc1c(NCc2ccccc2)nc(NCc2ccccc2)c(C#N)c1-c1ccc(Cl)cc1`, the GI50 was > 50 µM and 41.5 µM in the experiment on 786-0 renal; > 50 µM and 85.8 µM in the experiment with KM12 colon; > 50 µM and 76.9 µM in the experiment with MOLT-4 leukemia; > 50 µM and 62.7 µM with TK-10 renal; 63.6 µM with BT-549 breast; greater than 100 µM in the experiment on HT29 colon. Besides, the GI50 in the experiment on DU-145 prostate is > 50 µM and 52.8 µM; in the experiment with HOP-92 NSCLC it was greater than 50 µM; with IGROV1 ovarian, > 50 µM and 37.1 µM; in the experiment with SF-295 CNS it was > 50 µM and 36 µM. The TGI in the experiment with 786-0 renal, in the experiment with KM12 colon, with MOLT-4 leukemia, with TK-10 renal, in the experiment on BT-549 breast and in the experiment on HT29 colon was greater than 100 µM each time. The TGI is greater than 100 µM in the experiment with DU-145 prostate, greater than 50 µM in the experiment on HOP-92 NSCLC, greater than 100 µM with IGROV1 ovarian and greater than 100 µM in the experiment on SF-295 CNS.

Take `CS(=O)(=O)N1CCC(n2c(=O)c(Oc3ccc(F)cc3F)cc3cnc(NC4CCOCC4)nc32)CC1`: the GI50 was greater than 25 µM in the experiment with 786-0 renal; greater than 25 µM in the experiment with KM12 colon; greater than 25 µM in the experiment with MOLT-4 leukemia; 19.9 µM with TK-10 renal; 24.5 µM in the experiment with BT-549 breast; greater than 25 µM in the experiment on HT29 colon. Besides, the GI50 with DU-145 prostate, in the experiment with HOP-92 NSCLC, in the experiment with IGROV1 ovarian and with SF-295 CNS was greater than 25 µM throughout. Moreover, the TGI in the experiment with 786-0 renal, in the experiment on KM12 colon, in the experiment on MOLT-4 leukemia, in the experiment on TK-10 renal, with BT-549 breast and in the experiment with HT29 colon was greater than 25 µM throughout. Further, the TGI in the experiment on DU-145 prostate, in the experiment with HOP-92 NSCLC, with IGROV1 ovarian and with SF-295 CNS was greater than 25 µM throughout.
